Reference: BigSolDB 2.1

OC[C@@H](O)C(O)[C@@H](O)CO (some centres undefined)
solubility (mole fraction)
Details | 293.15 K | 298.15 K | 303.15 K | 308.15 K | 313.15 K | 318.15 K | 323.15 K
in acetone | 0.000202 | 0.00024 | 0.000302 | 0.000399 | 0.000542 | 0.000739 | 0.001
in ethanol | 0.00172 | 0.0024 | 0.00309 | 0.00396 | 0.00521 | 0.00703 | 0.0096
